Values joined by “and” are separate entries in the source; they are usually repeats but may differ in a detail not shown here. Equal values may be shown once. Read-outs that look alike come from different tables or passages of the source.
How the values were obtained:
[1] = target: T1, gp43exo− (bacteriophage T4 DNA polymerase) (Enterobacteria phage T4, UniProt P04415, D219A); assay type: biochemical
[2] = target: T1, gp43exo− (bacteriophage T4 DNA polymerase); assay: biochemical
[3] = target: T1, gp43exo− (bacteriophage T4 DNA polymerase); assay type: biochemical; conditions: 500 μM analogue; 10 μM dNTPs; unmodified 13/20-mer
[4] = target: T1, gp43exo− (bacteriophage T4 DNA polymerase); assay: biochemical; assay type: biochemical; conditions: 500 μM dNTPs
[5] = target: T1, gp43exo− (bacteriophage T4 DNA polymerase); assay: biochemical; assay type: biochemical
[6] = target: T1, gp43exo− (bacteriophage T4 DNA polymerase); assay: biochemical; conditions: for kpol: pseudo-first-order conditions
[7] = target: T1, gp43exo− (bacteriophage T4 DNA polymerase); conditions: cited from earlier work; for Kd / kpol: opposite an abasic site, previously determined values (Table 7 footnotes d, e, f not given); for Kd: read-out: KD
[8] = target: T1, gp43exo− (bacteriophage T4 DNA polymerase); conditions: cited from earlier work

T1 sequence (P04415 whole entry D219A, looked up): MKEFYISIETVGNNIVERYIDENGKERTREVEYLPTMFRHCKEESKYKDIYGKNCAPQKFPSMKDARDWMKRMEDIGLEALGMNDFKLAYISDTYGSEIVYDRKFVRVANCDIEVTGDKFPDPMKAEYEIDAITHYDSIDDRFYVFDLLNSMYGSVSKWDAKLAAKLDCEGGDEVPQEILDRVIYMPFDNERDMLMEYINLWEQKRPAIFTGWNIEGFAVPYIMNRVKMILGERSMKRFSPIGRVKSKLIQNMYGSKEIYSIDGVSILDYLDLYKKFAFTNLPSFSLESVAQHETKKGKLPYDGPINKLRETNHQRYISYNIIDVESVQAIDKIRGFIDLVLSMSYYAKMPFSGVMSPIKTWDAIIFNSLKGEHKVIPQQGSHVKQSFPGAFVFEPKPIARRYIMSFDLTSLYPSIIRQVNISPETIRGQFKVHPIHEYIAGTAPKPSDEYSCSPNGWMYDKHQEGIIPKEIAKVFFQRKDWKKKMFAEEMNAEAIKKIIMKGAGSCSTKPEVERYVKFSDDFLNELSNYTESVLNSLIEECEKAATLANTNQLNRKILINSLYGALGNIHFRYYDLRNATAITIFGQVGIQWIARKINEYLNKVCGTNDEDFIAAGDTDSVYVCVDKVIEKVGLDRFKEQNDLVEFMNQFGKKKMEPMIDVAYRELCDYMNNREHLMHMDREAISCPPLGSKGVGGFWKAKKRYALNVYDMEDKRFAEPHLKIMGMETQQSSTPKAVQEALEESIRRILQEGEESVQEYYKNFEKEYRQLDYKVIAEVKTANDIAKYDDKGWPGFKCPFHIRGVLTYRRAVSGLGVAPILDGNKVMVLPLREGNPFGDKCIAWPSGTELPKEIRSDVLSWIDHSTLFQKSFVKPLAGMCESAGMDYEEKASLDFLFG

SMILES: Nc1nc(N)c2ncn([C@H]3C[C@H](O)[C@@H](COP(=O)(O)OP(=O)(O)OP(=O)(O)O)O3)c2n1 [2,6-DAPTP]
- kext [1]: 0.016 ± 0.003 s⁻¹
- kpol [2]: 2.4 s⁻¹ and 2.4 ± 0.3 s⁻¹
- kpol higher/faster than that for dATP [2]: 16 fold
- Kd ([2]; read-out: KD): 900 µM

SMILES: Nc1ccc2c(ccn2[C@H]2C[C@H](O)[C@@H](COP(=O)(O)OP(=O)(O)OP(=O)(O)O)O2)c1 [5-AITP, 5-Amino-Indole-2′-Deoxyribofuranoside 5″-Triphosphate]
- inhibition of normal DNA synthesis [3]: do not inhibit normal DNA synthesis
- inhibition of replication beyond an abasic site ([4]; 20 μM analogue): inhibition is not observed
- inhibition of replication beyond an abasic site ([4]; 350 μM analogue): no effect on the kinetics of elongation
- kpol [5]: 0.17 ± 0.01 s⁻¹
- kpol/KD [5]: 700 M⁻¹ s⁻¹
- kpol/KD ([6]; Template A): 0.46 × 10^3 M^−1S^−1
- kpol ([6]; Template A): 0.21 ± 0.01 s⁻¹
- kpol/KD ([6]; Template T): 0.53 × 10^3 M^−1S^−1
- kpol ([6]; Template T): 0.071 ± 0.003 s⁻¹

SMILES: O=P(O)(O)OP(=O)(O)OP(=O)(O)OC[C@H]1O[C@@H](n2ccc3cc(C4=CCCCC4)ccc32)C[C@@H]1O [5-CE-ITP]
- Kd [7]: ~10 µM

SMILES: O=P(O)(O)OP(=O)(O)OP(=O)(O)OC[C@H]1O[C@@H](n2ccc3cc(F)ccc32)C[C@@H]1O [5-FITP, 5-Fluoro-indole-2′-deoxyribofuranoside 5′-Triphosphate]
- inhibition of normal DNA synthesis [3]: do not inhibit normal DNA synthesis
- inhibition of replication beyond an abasic site ([4]; 20 μM analogue): inhibition is not observed
- inhibition of replication beyond an abasic site ([4]; 350 μM analogue): no effect on the kinetics of elongation
- kpol [5]: 0.30 ± 0.03 s⁻¹
- kpol/KD [5]: 2000 M⁻¹ s⁻¹
- kpol/KD ([6]; Template A): 0.6 × 10^3 M^−1S^−1
- kpol ([6]; Template A): 0.11 ± 0.06 s⁻¹
- kpol/KD ([6]; Template T): 0.29 × 10^3 M^−1S^−1
- kpol ([6]; Template T): 0.040 ± 0.003 s⁻¹

SMILES: Nc1ccc2[nH]ccc2c1 [5-amino-indole]
- Catalytic efficiency (kpol/KD) [5]: 500 M⁻¹ s⁻¹

SMILES: Fc1ccc2[nH]ccc2c1 [5-fluoro-indole]
- Catalytic efficiency (kpol/KD) [5]: 2000 M⁻¹ s⁻¹

SMILES: O=[N+]([O-])c1ccc2[nH]ccc2c1 [5-nitro-indole]
- Catalytic efficiency (kpol/KD) [8]: 7e+06 M⁻¹ s⁻¹

SMILES: c1ccc(-c2ccc3[nH]ccc3c2)cc1 [5-phenyl-indole]
- Catalytic efficiency (kpol/KD) [5]: 3.8e+06 M⁻¹ s⁻¹

SMILES: Nc1nc(Cl)c2ncn([C@H]3C[C@H](O)[C@@H](COP(=O)(O)OP(=O)(O)OP(=O)(O)O)O3)c2n1 [6-Cl-2APTP]
- elongated slower compared to dATP, N^7-deaza dATP and N^6-methyl dATP [1]: ~10 fold
- kext [1]: 0.033 ± 0.004 s⁻¹
- kpol [2]: 0.12 and 0.12 ± 0.01 s^−1
- Kd ([2]; read-out: KD): 71 ± 20 µM

SMILES: O=P(O)(O)OP(=O)(O)OP(=O)(O)OC[C@H]1O[C@@H](n2cnc3c(Cl)ncnc32)C[C@@H]1O [6-Cl-dATP]
- kext [1]: 0.031 ± 0.003 s⁻¹
- kpol [2]: 0.28 ± 0.02 s⁻¹
- kpol higher/faster than that for dATP [2]: 2 fold
- Kd ([2]; read-out: KD): 83 ± 16 µM

SMILES: Nc1ncnc2c1ccn2[C@H]1C[C@H](O)[C@@H](COP(=O)(O)OP(=O)(O)OP(=O)(O)O)O1 [7-Deaza dATP]
- kext [1]: 0.32 ± 0.03 s⁻¹
- catalytic efficiency higher than that for 7-deaza dGTP [2]: > 10 fold
- kpol [2]: 1.4 and 1.4 ± 0.1 s^−1
- kpol higher/faster than that for dATP [2]: ~10 fold
- Kd ([2]; KD): 200 µM and 197 µM

SMILES: Nc1nc2c(ccn2[C@H]2C[C@H](O)[C@@H](COP(=O)(O)OP(=O)(O)OP(=O)(O)O)O2)c(=O)[nH]1 [7-Deaza dGTP]
- extension beyond dXMP:abasic site mispair [1]: lack of extension
- kpol [2]: 0.11 and 0.11 ± 0.02 s^−1
- kpol higher/faster than that for dGTP [2]: ~5 fold
- Kd ([2]; KD): 215 µM

SMILES: Nc1ncnc2c1[nH]c(=O)n2[C@H]1C[C@H](O)[C@@H](COP(=O)(O)OP(=O)(O)OP(=O)(O)O)O1 [8-Oxo dATP]
- incorporation opposite an abasic site [2]: no incorporation was observed

SMILES: O=P(O)(O)OP(=O)(O)OP(=O)(O)OC[C@H]1O[C@@H](n2ccc3ccccc32)C[C@@H]1O [IndTP, reference compound]
- inhibition of normal DNA synthesis [3]: do not inhibit normal DNA synthesis
- kpol [8]: 0.28 ± 0.07 s⁻¹
- kpol/KD [8]: 1900 M⁻¹ s⁻¹
- Kd ([8]; read-out: KD): 145 ± 10 µM
- inhibition of replication beyond an abasic site ([4]; 20 μM analogue): inhibition is not observed
- inhibition of replication beyond an abasic site ([4]; 350 μM analogue): no effect on the kinetics of elongation

SMILES: CNc1nc2c(ncn2[C@H]2C[C@H](O)[C@@H](COP(=O)(O)OP(=O)(O)OP(=O)(O)O)O2)c(=O)[nH]1 [N^2-methyl dGTP]
- kpol [2]: 0.12 and 0.12 ± 0.02 s^−1
- kpol higher/faster than that for dGTP [2]: ~5 fold
- Kd ([2]; read-out: KD): 245 µM

SMILES: CNc1ncnc2c1ncn2[C@H]1C[C@H](O)[C@@H](COP(=O)(O)OP(=O)(O)OP(=O)(O)O)O1 [N^6-methyl dATP]
- kext [1]: 0.71 ± 0.04 s⁻¹
- kpol [2]: 5.6+/−0.6 and 5.3 and 5.6 ± 0.6 s^−1
- kpol higher/faster than that for dATP [2]: 40 fold
- Kd ([2]; KD): 190 µM

SMILES: COc1nc(N)nc2c1ncn2[C@H]1C[C@H](O)[C@@H](COP(=O)(O)OP(=O)(O)OP(=O)(O)O)O1 [O^6-methyl dGTP]
- increase in kext compared with dGTP [1]: ~20 fold
- kext [1]: 0.092 ± 0.009 s⁻¹
- kpol [2]: 0.98 and 0.98 ± 0.08 s^−1
- kpol higher/faster than that for dGTP [2]: 40 fold
- Kd ([2]; read-out: KD): 180 µM and 181 µM

SMILES: Nc1ncnc2nc[nH]c12 [adenine, reference compound]
- Catalytic efficiency (kpol/KD) [8]: 1500 M⁻¹ s⁻¹

SMILES: Nc1ncnc2c1ncn2[C@H]1C[C@H](O)[C@@H](COP(=O)(O)OP(=O)(O)OP(=O)(O)O)O1 [dATP]
- overall catalytic efficiency opposite an abasic site greater than dGTP [7]: ~35 fold
- kpol [7]: 0.15 s⁻¹ and 0.15 ± 0.01 s⁻¹
- Kd [7]: 35 µM
- kext [1]: 0.25 ± 0.01 s⁻¹
- kpol [8]: ≈ 0.15 s^−1
- kpol/KD [8]: 4300 M⁻¹ s⁻¹

SMILES: Nc1nc2c(ncn2[C@H]2C[C@H](O)[C@@H](COP(=O)(O)OP(=O)(O)OP(=O)(O)O)O2)c(=O)[nH]1 [dGTP]
- kpol [7]: 0.023 ± 0.005 s⁻¹
- Kd [7]: 130 µM
- kext [1]: 0.005 ± 0.001 s⁻¹

SMILES: O=c1[nH]cnc2c1ncn2[C@H]1C[C@H](O)[C@@H](COP(=O)(O)OP(=O)(O)OP(=O)(O)O)O1 [dITP]
- extension beyond dXMP:abasic site mispair [1]: lack of extension
- kpol [2]: 0.044 ± 0.003 s⁻¹
- kpol lower than that of dATP [2]: 3.5 fold
- Kd ([2]; read-out: KD): 103 ± 14 µM

SMILES: c1ccc2[nH]ccc2c1 [indole, reference compound]
- Catalytic efficiency (kpol/KD) [8]: 1900 M⁻¹ s⁻¹

Source: patent US8114847B2, “Selective inhibitors of translesion DNA replication” (Case Western Reserve University, priority 2005, dated 2012)
